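Step 1: Grow cells in 96-well plates. Step 2: Expose to compound for 48 hours at 5 concentrations. Step 3: Interpolate endpoints linearly; if unreached, use highest concentration. The concentration for 50% growth inhibition is given as GI50. TGI denotes the concentration required for complete inhibition of growth.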
Tests used:
Assay in all cases: NCI-60 cell line screen, 48 h
UACC-62 melanoma = tested on: UACC-62 melanoma
OVCAR-5 ovarian = tested on: OVCAR-5 ovarian
U251 CNS = tested on: U251 CNS
SK-MEL-2 melanoma = tested on: SK-MEL-2 melanoma
HT29 colon = tested on: HT29 colon
SF-295 CNS = tested on: SF-295 CNS
RPMI-8226 leukemia = tested on: RPMI-8226 leukemia
SNB-19 CNS = tested on: SNB-19 CNS
CCRF-CEM leukemia = tested on: CCRF-CEM leukemia
NCI/ADR-RES ovarian = tested on: NCI/ADR-RES ovarian

Structure (SMILES)	TGI (UACC-62 melanoma) [µM]	TGI (OVCAR-5 ovarian) [µM]	TGI (U251 CNS) [µM]	TGI (SK-MEL-2 melanoma) [µM]	TGI (HT29 colon) [µM]	TGI (SF-295 CNS) [µM]	TGI (RPMI-8226 leukemia) [µM]	TGI (SNB-19 CNS) [µM]	TGI (CCRF-CEM leukemia) [µM]	GI50 (UACC-62 melanoma) [µM]	GI50 (NCI/ADR-RES ovarian) [µM]	TGI (NCI/ADR-RES ovarian) [µM]	GI50 (OVCAR-5 ovarian) [µM]	GI50 (U251 CNS) [µM]	GI50 (SK-MEL-2 melanoma) [µM]	GI50 (SF-295 CNS) [µM]	GI50 (RPMI-8226 leukemia) [µM]	GI50 (CCRF-CEM leukemia) [µM]	GI50 (HT29 colon) [µM]	GI50 (SNB-19 CNS) [µM]
COc1ccc(O)c2c1C(=O)CCCC2=O	> 100	> 100	> 100	> 100	> 100	> 100	> 100	> 100	> 100	–	–	–	–	–	–	–	–	–	–	–
COC(=O)C1=C(C(=O)OC)C2(C(=O)OC)OC1(OC)C(C1(C(=O)OC)C(C(=O)OC)=C1C(=O)OC)=C2C(=O)OC (stereo unspecified)	> 100	> 100	> 100	> 100	> 100	> 100	> 100	> 100	> 100	–	–	–	–	–	–	–	–	–	–	–
COc1ccc2c(c1)CC[C@@H]1C2CC[C@]2(C)C(=O)NC(=O)CC12 (stereo partly specified)	> 100	> 100	> 100	> 100	> 100	> 100	> 100	> 100	> 100	–	–	–	–	–	–	–	–	–	–	–
C=C(C)[C@H]1CC/C(C)=C/CCC(C)C(=O)CC/C(CO)=C\[C@@H]1O (stereo partly specified)	> 100	> 100	> 100	> 100	–	> 100	> 100	–	> 100	67.6	> 100	> 100	> 100	90.3	> 100	70	> 100	44.6	–	–
O=[N+]([O-])c1ccc(Cl)c(C2SCc3nc4ccccc4n32)c1 (stereo unspecified)	> 100	> 100	> 100	> 100	> 100	> 100	> 100	> 100	> 100	–	–	–	–	–	–	–	–	–	–	–
O=C1C(c2ccccc2)=C(c2ccccc2)C(c2ccc(CCCCCCc3ccc(C4=C(c5ccccc5)C(=O)C(c5ccccc5)=C4c4ccccc4)cc3)cc2)=C1c1ccccc1	> 100	> 100	> 100	> 100	> 100	> 100	> 100	> 100	> 100	–	–	–	–	–	–	–	–	–	–	–
O=C(NNS(=O)(=O)c1cc(C(F)(F)F)cc(C(F)(F)F)c1)c1cnn(-c2ccc(Cl)cc2)c1C(F)(F)F	30	33.5	35.3	34.7	> 100	44	33.1	49.7	–	14.5	19.6	41	17.8	17.3	18.5	14.9	13.3	–	31.7	20.2
O=c1c([Se]c2coc3ccccc3c2=O)coc2ccccc12	30.9	30.3	19.8	32.4	32.4	13.7	56.3	27.4	> 100	–	–	–	–	–	–	–	–	–	–	–
COc1cc(Br)c(CC2=NCCc3cc(OC)c(OC)cc32)cc1OC	> 100	> 100	> 100	> 100	> 100	> 100	73	> 100	> 100	–	–	–	–	–	–	–	–	–	–	–
COc1ccccc1/C=C\c1cc(OC)c(OC)c(OC)c1	> 100	89.4	> 100	–	> 100	> 100	43.7	> 100	> 100	–	–	–	–	–	–	–	–	–	–	–
CCOC(=O)C(C[Si](C)(C)C)P(=O)(OCC)OCC (stereo unspecified)	> 100	> 100	> 100	–	> 100	> 100	> 100	–	> 100	–	–	–	–	–	–	–	–	–	–	–
O=C1/C(=C/c2cccs2)CCC/C1=C\c1cccs1	> 100	> 100	> 100	> 100	> 100	> 100	> 100	> 100	–	> 54.3	50.9	> 100	> 100	30.6	47.8	66.5	> 100	–	> 100	> 54.1
COc1ccc(C(=O)C=C2NCCN2)cc1	> 100	> 100	> 100	> 100	> 100	> 100	> 100	> 100	> 100	–	–	–	–	–	–	–	–	–	–	–
COc1cc(C2C(C(=O)Nc3ccccc3)=C(C)NC(C)=C2C(=O)Nc2ccccc2)ccc1O	–	> 100	> 100	76.8	33.8	> 100	> 100	> 100	–	–	–	–	–	–	–	–	–	–	–	–
O=c1[nH]c(=S)[nH]c(O)c1/C=C1\C=CC=N1	35.6	47	89.2	51.4	54.2	82.4	23	> 100	75.5	–	–	–	–	–	–	–	–	–	–	–
CC(C)(C)CC(C)(C)c1ccc(OCCOCCSC(=N)N)cc1	3.24	6.5	3.04	3.49	3.42	3.27	–	5.58	6.02	1.75	2.59	6.61	2.4	1.65	2.02	1.72	–	2.46	1.78	2.17
Cn1c(=O)c2[nH]c(COc3ccc(C(C)(C)C)cc3)nc2n(C)c1=O	72.4	> 100	> 100	–	> 100	> 100	18.4	> 100	–	5.56	8.04	60.6	24.2	37.5	–	4.03	1.08	–	29.3	82.3
Cc1ccc(NC(=O)C(=O)Cc2nc3ccccc3o2)c(C)c1	> 100	> 100	> 100	> 100	> 100	> 100	> 100	> 100	–	–	–	–	–	–	–	–	–	–	–	–
CCC1(CN(C)C)CC/C(=C\c2ccc3c(c2)OCO3)C1=O (stereo unspecified)	> 100	> 100	> 100	> 100	> 100	> 100	> 100	> 100	> 100	–	–	–	–	–	–	–	–	–	–	–

Reference: PubChem BioAssay (NCI)
